In ChEMBL document CHEMBL4296182, “CO-ADD screening of NIH NCI Diversity Set V”:
≈ marks a conversion by molar mass, not a printed value.

How the values were obtained:
[1] = tested on: Klebsiella pneumoniae; test: microbe, parasite or virus in culture; settings: ATCC 700603, 18 h, ASSAY_TEST Inhibition of Bacterial Growth, detection method Absorption (OD600), MEDIA CAMHB, plate type 384well, NBS, CORNING #3640
Description: Antibacterial activity against Klebsiella pneumoniae MDR ATCC 70063 (CO-ADD:GN_003); MIC in CAMBH media using NBS plates, by OD(600)

[2] = tested on: HEK293; test: cells; assay type: functional; settings: Homo sapiens, ATCC CRL1573, HEK293; ASSAY_TEST Inhibition of Cell Viability; detection method Resazurin; Fluorescence (ex560/em590); MEDIA DMEM with 10% FBS; plate type 384well; TC; CORNING #3712; time 18 hr
[3] = tested on: Acinetobacter baumannii; test: microbe, parasite or virus in culture; settings: ATCC 19606, 18 h, ASSAY_TEST Inhibition of Bacterial Growth, detection method Absorption (OD600), MEDIA CAMHB, plate type 384well, NBS, CORNING #3640
Description: Antibacterial activity against Acinetobacter baumannii ATCC 19606 (CO-ADD:GN_034); MIC in CAMBH media using NBS plates, by OD600

[4] = tested on: Pseudomonas aeruginosa; test: microbe, parasite or virus in culture; settings: ATCC 27853, 18 h, ASSAY_TEST Inhibition of Bacterial Growth, detection method Absorption (OD600), MEDIA CAMHB, plate type 384well, NBS, CORNING #3640
Description: Antibacterial activity against Pseudomonas aeruginosa ATCC 27853 (CO-ADD:GN_042); MIC in CAMBH media using NBS plates, by OD(600)

[5] = tested on: Candida albicans; test: microbe, parasite or virus in culture; settings: ATCC 90028, ASSAY_TEST Inhibition of Fungal Growth, detection method Absorption (OD530), plate type 384well, NBS, CORNING #3640
Description: Antifungal activity against Candida albicans ATCC 90028 (CO-ADD:FG_001); MIC in YNB media using NBS plates, by OD630

[6] = tested on: Escherichia coli; test: microbe, parasite or virus in culture; settings: ATCC 25922, 18 h, ASSAY_TEST Inhibition of Bacterial Growth, detection method Absorption (OD600), MEDIA CAMHB, plate type 384well, NBS, CORNING #3640
Description: Antibacterial activity against Escherichia coli ATCC 25922 (CO-ADD:GN_001); MIC in CAMBH media using NBS plates, by OD(600)

[7] = tested on: Staphylococcus aureus; test: microbe, parasite or virus in culture; settings: ATCC 43300, 18 h, ASSAY_TEST Inhibition of Bacterial Growth, detection method Absorption (OD600), MEDIA CAMHB, plate type 384well, NBS, CORNING #3640
Description: Antibacterial activity against Staphylococcus aureus MRSA ATCC 43300 (CO-ADD:GP_020); MIC in CAMBH media, using NBS plates, by OD(600)

[8] = tested on: Cryptococcus neoformans
Description: Antifungal activity against Cryptococcus neoformans H99 ATCC 208821 (CO-ADD:FG_002); MIC in YNB media using NBS plates, by Resazurin OD(600-570)

SMILES	MIC [1]	MIC [3]	MIC [4]	MIC [5]	MIC [6]	MIC [7]	MIC [8]	CC50 [2]
O=Nc1c(-c2cccc([N+](=O)[O-])c2)nc2ncccn12	> 10 µM	> 10 µM	> 10 µM	0.625 µM (≈ 0.168 µg/mL)	> 10 µM	0.312 µM (≈ 0.0841 µg/mL)	2.5 µM (≈ 0.673 µg/mL)	> 10 µM
CC(C)c1ccc2c(c1)CCC1C(C)(CN)CCCC21C (stereo not given)	> 10 µM	> 10 µM	> 10 µM	> 10 µM	> 10 µM	> 10 µM	> 10 µM	8.3 µM
Cc1cnc(SCc2ccc(Cl)cc2Cl)nc1O	> 10 µM	> 10 µM	> 10 µM	> 10 µM	> 10 µM	> 10 µM	> 10 µM	> 10 µM
O=C1N=C(Nc2nc3ccccc3[nH]2)c2ccccc21	> 10 µM	> 10 µM	> 10 µM	10 µM (≈ 2.62 µg/mL)	> 10 µM	> 10 µM	> 10 µM	> 10 µM
Cn1c(=S)c2nc(SCCN3CCCC3)[nH]c2n(C)c1=O	> 10 µM	> 10 µM	> 10 µM	> 10 µM	0.156 µM (≈ 0.0509 µg/mL)	> 10 µM	> 10 µM	> 10 µM
CCOC(=O)/C(C#N)=C1\SS/C(=C(/C#N)C(=O)OCC)S1	> 10 µM	> 10 µM	> 10 µM	> 10 µM	> 10 µM	> 10 µM	> 10 µM	> 10 µM
O=[N+]([O-])c1ccc(-c2ccccc2)c([As](=O)(O)O)c1	> 10 µM	> 10 µM	> 10 µM	> 10 µM	> 10 µM	> 10 µM	> 10 µM	> 10 µM
Cc1ccc(C=C2C(Cl)=C(Cl)C(Cl)=C2Cl)cc1	> 10 µM	> 10 µM	> 10 µM	> 10 µM	> 10 µM	> 10 µM	> 10 µM	> 10 µM
CCOC(=O)c1ccc(Nc2sc(C(=O)c3cccc([N+](=O)[O-])c3)c(N)c2C#N)cc1	> 10 µM	> 10 µM	> 10 µM	> 10 µM	> 10 µM	> 10 µM	> 10 µM	> 10 µM
CN1CCN(c2ccc([N+](=O)[O-])c3no[n+]([O-])c23)CC1	> 10 µM	> 10 µM	> 10 µM	> 10 µM	> 10 µM	2.5 µM (≈ 0.698 µg/mL)	> 10 µM	0.755 µM
Cc1ccnc(NC(c2ccccc2)c2ccc3cccnc3c2O)c1 (stereo not given)	> 10 µM	> 10 µM	> 10 µM	> 10 µM	> 10 µM	> 10 µM	> 10 µM	> 10 µM
Cc1c2cc[n+](CCN3CCCCC3)cc2c(C)c2c1[nH]c1ccc(O)cc12	> 10 µM	> 10 µM	> 10 µM	> 10 µM	> 10 µM	> 10 µM	10 µM	> 10 µM
O=C1C(Cl)=C(NCCc2ccccc2)C(=O)c2ccccc21	> 10 µM	> 10 µM	> 10 µM	0.625 µM (≈ 0.195 µg/mL)	> 10 µM	> 10 µM	0.625 µM (≈ 0.195 µg/mL)	> 10 µM
CSc1nc(C)c(Br)c(N2CC2)n1	> 10 µM	> 10 µM	> 10 µM	> 10 µM	> 10 µM	> 10 µM	> 10 µM	> 10 µM
C/C(=N/NC(=S)N1CC2CCC(CC2)C1)c1cnccn1	> 10 µM	> 10 µM	> 10 µM	2.5 µM (≈ 0.759 µg/mL)	> 10 µM	> 10 µM	> 10 µM	> 10 µM
SC1=NC2(CCCCCC2)NN1c1ccccc1	> 10 µM	> 10 µM	> 10 µM	> 10 µM	> 10 µM	> 10 µM	> 10 µM	> 10 µM
Nc1ccc(Cn2ccc3c4c(N)nc(N)nc4ccc32)cc1	5 µM (≈ 1.52 µg/mL)	> 10 µM	5 µM (≈ 1.52 µg/mL)	> 10 µM	1.25 µM (≈ 0.38 µg/mL)	1.25 µM (≈ 0.38 µg/mL)	> 10 µM	> 10 µM
Oc1ccc2ccccc2c1/N=N/c1nccs1	> 10 µM	> 10 µM	> 10 µM	10 µM (≈ 2.55 µg/mL)	> 10 µM	> 10 µM	2.5 µM (≈ 0.638 µg/mL)	> 10 µM
C#CC(c1ccccc1)(c1ccccc1)n1ccnc1	> 10 µM	> 10 µM	> 10 µM	> 10 µM	> 10 µM	> 10 µM	> 10 µM	> 10 µM
COC(=O)N1C2CCCCC2=NN(c2ccccc2)N1C(=O)OC (stereo not given)	> 10 µM	> 10 µM	> 10 µM	> 10 µM	> 10 µM	> 10 µM	> 10 µM	> 10 µM
NC(=S)c1cn(C2OC(CO)C(O)C2O)c2ncnc(N)c12 (stereo not given)	> 10 µM	> 10 µM	> 10 µM	10 µM (≈ 3.25 µg/mL)	> 10 µM	> 10 µM	> 10 µM	0.521 µM
C=C(C)C(=O)Oc1ccc(/N=N/c2ccc(C)cc2)ccc1=O	> 10 µM	> 10 µM	> 10 µM	10 µM (≈ 3.08 µg/mL)	> 10 µM	> 10 µM	> 10 µM	> 10 µM
Cc1nc(/N=N/c2ccccc2)[nH]c1/N=N/c1ccccc1	> 10 µM	> 10 µM	> 10 µM	> 10 µM	> 10 µM	> 10 µM	> 10 µM	> 10 µM

Continued, in another order:

MIC [1]	MIC [3]	MIC [4]	MIC [5]	MIC [6]	MIC [7]	MIC [8]	SMILES	CC50 [2]
> 10 µM	> 10 µM	> 10 µM	> 10 µM	5 µM (≈ 1.59 µg/mL)	0.156 µM (≈ 0.0498 µg/mL)	> 10 µM	Nc1nc(N)c2cc(Sc3ccc4ccccc4c3)ccc2n1	4.64 µM
> 10 µM	> 10 µM	> 10 µM	> 10 µM	> 10 µM	> 10 µM	> 10 µM	O=C(Nc1ccc(Cl)c(Cl)c1)Nc1ccc([N+](=O)[O-])cn1	> 10 µM
> 10 µM	> 10 µM	> 10 µM	> 10 µM	> 10 µM	> 10 µM	> 10 µM	O=C1C=C(c2ccccc2)OC(=O)C1C(=O)c1ccccc1 (stereo not given)	> 10 µM
> 10 µM	> 10 µM	> 10 µM	5 µM (≈ 1.63 µg/mL)	> 10 µM	> 10 µM	10 µM (≈ 3.25 µg/mL)	N=C(Nc1nc(-c2ccccn2)cc2ccccc12)c1ccccn1	> 10 µM
> 10 µM	> 10 µM	> 10 µM	≤ 0.0781 µM	> 10 µM	> 10 µM	> 10 µM	Cn1cnc([N+](=O)[O-])c1S(=O)(=O)Oc1cccc2ccccc12	8.21 µM
> 10 µM	> 10 µM	> 10 µM	> 10 µM	> 10 µM	> 10 µM	> 10 µM	Cc1ccc([S+]([O-])c2ccc([N+](=O)[O-])c3nonc23)cc1 (stereo not given)	> 10 µM
> 10 µM	> 10 µM	> 10 µM	> 10 µM	> 10 µM	> 10 µM	> 10 µM	Cn1c2ccccc2c2ccc3c(c21)C(=O)C=CC3=O	> 10 µM
> 10 µM	> 10 µM	> 10 µM	> 10 µM	> 10 µM	> 10 µM	> 10 µM	COc1ccccc1/C=C/C(=O)/C=C/c1ccccc1O	3.95 µM
> 10 µM	> 10 µM	> 10 µM	> 10 µM	> 10 µM	> 10 µM	> 10 µM	Cc1c(-c2ccccc2)n(O)[n+]([O-])c1-c1ccccc1	> 10 µM
> 10 µM	> 10 µM	> 10 µM	> 10 µM	> 10 µM	> 10 µM	> 10 µM	O=C1C=CC(=O)N1c1ccc(I)cc1Cl	> 10 µM
> 10 µM	> 10 µM	> 10 µM	> 10 µM	> 10 µM	> 10 µM	> 10 µM	CNc1ncn(-c2c(C)cccc2C)c(=O)n1	> 10 µM
> 10 µM	> 10 µM	> 10 µM	1.25 µM (≈ 0.363 µg/mL)	> 10 µM	> 10 µM	10 µM (≈ 2.9 µg/mL)	O=[N+]([O-])c1ccc(Sc2cccc[n+]2[O-])c2nonc12	2.53 µM
